Data from ChEMBL document CHEMBL1131899, “First fatty acylated dipeptides to affect muscarinic receptor ligand binding” (Bioorg Med Chem Lett, 1999).
Where a SMILES comes first, the peptide text is derived from it. The star is where a group is joined. Palmitoyl = CCCCCCCCCCCCCCCC(=O)*; Myristoyl = CCCCCCCCCCCCCC(=O)*; OBn = c1ccc(CO*)cc1

Key:
[1] = biological target: T1, Muscarinic acetylcholine receptor M1 (Homo sapiens) (UniProt P11229); test: (§1) Binding of [3H]QNB to HM1 receptor was evaluated by saturation binding assay
T1 sequence (whole entry): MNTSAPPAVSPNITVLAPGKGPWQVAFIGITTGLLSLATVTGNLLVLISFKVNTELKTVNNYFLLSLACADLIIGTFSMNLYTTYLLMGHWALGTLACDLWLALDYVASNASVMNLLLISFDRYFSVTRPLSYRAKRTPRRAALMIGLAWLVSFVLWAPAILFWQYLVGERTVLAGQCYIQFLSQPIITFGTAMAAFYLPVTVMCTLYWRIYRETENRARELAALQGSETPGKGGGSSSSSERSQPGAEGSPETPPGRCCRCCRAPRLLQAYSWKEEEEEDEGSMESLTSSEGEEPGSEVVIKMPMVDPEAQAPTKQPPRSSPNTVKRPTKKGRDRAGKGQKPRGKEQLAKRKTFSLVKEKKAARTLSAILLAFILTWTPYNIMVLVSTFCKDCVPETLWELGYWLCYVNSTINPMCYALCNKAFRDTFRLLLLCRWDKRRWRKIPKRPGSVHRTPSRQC

[2] = biological target: T2, Muscarinic acetylcholine receptor M1 (Homo sapiens, UniProt P11229); test: as §1
T2 sequence (P11229 whole entry): T1 sequence (whole entry)

[3] = biological target: T3, Muscarinic acetylcholine receptor M2 (Homo sapiens) (UniProt P08172); test: (§2) Binding of [3H]QNB to HM2 receptor was evaluated by saturation binding assay
T3 sequence (whole entry): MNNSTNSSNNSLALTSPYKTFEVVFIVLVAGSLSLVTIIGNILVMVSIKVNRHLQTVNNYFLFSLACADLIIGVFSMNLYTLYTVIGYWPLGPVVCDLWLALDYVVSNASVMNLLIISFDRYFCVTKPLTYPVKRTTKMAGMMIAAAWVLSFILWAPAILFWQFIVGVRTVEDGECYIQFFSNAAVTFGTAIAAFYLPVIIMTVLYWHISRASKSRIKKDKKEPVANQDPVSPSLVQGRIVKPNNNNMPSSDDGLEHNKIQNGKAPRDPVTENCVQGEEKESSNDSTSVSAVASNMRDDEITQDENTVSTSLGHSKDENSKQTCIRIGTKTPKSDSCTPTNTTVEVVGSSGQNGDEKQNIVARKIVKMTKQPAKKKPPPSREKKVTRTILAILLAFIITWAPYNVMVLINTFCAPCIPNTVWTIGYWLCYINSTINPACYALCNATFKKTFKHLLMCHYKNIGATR

[4] = biological target: T4, Muscarinic acetylcholine receptor M2 (Homo sapiens, UniProt P08172); test: as §2
T4 sequence (P08172 whole entry): T3 sequence (whole entry)

Bmax [1]	Kd [2]	Bmax [3]	Kd [4]	Compound
1.2 pmol/mg	0.03 nM	1.8 pmol/mg	1.78 nM	CCCCCCCCCCCCCCCC(=O)OC[C@H](NC(=O)CNC(=O)CCCCCCCCCCCCC)C(=O)OCc1ccccc1 (Myristoyl-Gly-Ser(Palmitoyl)-OBn)
1.7 pmol/mg	0.04 nM	0.8 pmol/mg	0.15 nM	CCCCCCCCCCCCCC(=O)NCC(=O)N[C@@H](CO)C(=O)OCc1ccccc1 (Myristoyl-Gly-Ser-OBn)
